Results as given in patent US20190022225A1, “PROTOCOL FOR INCREASING LIFE EXPECTANCY IN A TEST SUBJECT” (Mayo Foundation for Medical Education and Research, priority 2015, published 2019).

Columns and labels:
[1] = tested on: 3MR mice with bleomycin induced lung injury; assay: Bleomycin induced lung injury model; assay type: in vivo, mouse; conditions: for lung compliance (static and dynamic) / lung elastance: 21 days post-bleomycin, Nutlin-3A data not statistically significant
Protocol: One animal model study assessed the effect of clearance of senescence cells in the transgenic mouse strain 3MR that has bleomycin induced lung injury. […] Control mice were administered saline. The day following bleomycin treatment, ganciclovir (GCV) (25 mg/kg in PBS) was administered. 3MR mice were treated via intraperitoneal injection with ganciclovir for 5 consecutive days, followed by 5 days of rest, followed by a second treatment cycle of 5 consecutive days. Untreated mice received an equal volume of vehicle. At 7, 14, and 21 days post-bleomycin treatment, lung function was assessed by monitoring oxygen saturation using the MouseSTAT PhysioSuite pulse oximeter (Kent Scientific). Animals were anesthetized with isoflurane (1.5%) and a toe clip was applied. Mice were monitored for 30 seconds and the average peripheral capillary oxygen saturation (SpO2) measurement over this duration was calculated. […] At 21 days post-bleomycin treatment, airway hyper-reactivity (AHR) of mice was examined. AHR of mice was measured by methacholine challenge while other parameters of lung function (airway mechanics, lung volume and lung compliance) were determined using a SCIREQ flexiVent ventilator. While under ketamine/xylazine anesthesia and subjected to cannulation of the trachea via a tracheostomy (19Fr blunt Luer cannula), airway resistance (elastance) and compliance of mice were assessed at baseline and in response to increasing concentrations of methacholine (0 to 50 mg/ml in PBS) delivered via nebulization (AeroNeb) as described in Aravamudan et al. (Am. J. Physiol. Lung Cell. Mol. Physiol. (2012) 303:L669-L6810). Animals were maintained at 37° C., and while under muscle paralysis (pancuronium); airway function was measured by using the FlexiVent ventilator and lung mechanics system (SCIREQ, Montreal, Quebec, Canada), which was housed on Stabile 8. […] As shown in FIGS. 60B-C, bleomycin administration reduced static compliance and (dynamic) compliance in vehicle treated mice. […] Mice were euthanized by i.p injection of pentobarbital. Bronchoalveolar lavage (BAL) fluids and lungs is obtained and analyzed. Hydroxyproline content of lungs is measured as described in Christensen et al. (1999, Am. J. Pathol. 155:1773-1779), and quantitative histopathology is performed. RNA is extracted from lung tissue to measure senescence cell markers by qRT-PCR in treated and control mice.

[2] = tested on: 3MR or INK-ATTAC mice exposed to cigarette smoke; assay: Cigarette smoke exposure model (COPD), oxygen saturation; assay type: in vivo, mouse; conditions: after 2 months of cigarette smoke exposure
Protocol: Six week-old 3MR (n=35) or INK-ATTAC (n=35) mice were chronically exposed to cigarette smoke generated from a Teague TE-10 system, an automatically-controlled cigarette smoking machine that produces a combination of side-stream and mainstream cigarette smoke in a chamber, which is transported to a collecting and mixing chamber where varying amounts of air is mixed with the smoke mixture. […] Mice received a total of 6 hours of cigarette smoke exposure per day, 5 days a week for 6 months. Each lighted cigarette (3R4F research cigarettes containing 10.9 mg of total particulate matter (TPM), 9.4 mg of tar, and 0.726 mg of nicotine, and 11.9 mg carbon monoxide per cigarette [University of Kentucky, Lexington, Ky.]) was puffed for 2 seconds and once every minute for a total of 8 puffs, with the flow rate of 1.05 L/min, to provide a standard puff of 35 cm^3. The smoke machine was adjusted to produce a mixture of side stream smoke (89%) and mainstream smoke (11%) by smoldering 2 cigarettes at one time. The smoke chamber atmosphere was monitored for total suspended particulates (80-120 mg/m^3) and carbon monoxide (350 ppm). Beginning at day 7, (10) INK-ATTAC and (10) 3MR mice were treated with AP20187 (3×per week) or gancyclovir (5 consecutive days of treatment followed by 16 days off drug, repeated until the end of the experiment), respectively. An equal number of mice received the corresponding vehicle. The remaining 30 mice (15 INK-ATTAC and 15 3MR) were evenly split with 5 of each genetically modified strain placed into three different treatment groups. One group (n=10) received Nutlin-3A (25 mg/kg dissolved in 10% DMSO/3% Tween-20 in PBS, treated 14 days consecutively followed by 14 days off drug, repeated until the end of the experiment). One group (n=10) received ABT-263 (Navitoclax) (100 mg/kg dissolved in 15% DMSO/5% Tween-20, treated 7 days consecutively followed by 14 days off drug, repeated until the end of the experiment), and the last group (n=10) received only the vehicle used for ABT-263 (15% DMSO/5% Tween-20), following the same treatment regimen as ABT-263.
After two months of cigarette smoke exposure, lung function was assessed by monitoring oxygen saturation using the MouseSTAT PhysioSuite pulse oximeter (Kent Scientific). Animals were anesthetized with isoflurane (1.5%) and the toe clip was applied. Mice were monitored for 30 seconds and the average peripheral capillary oxygen saturation (SpO2) measurement over this duration was calculated.

SMILES	lung compliance (static and dynamic) [1]	lung elastance [1]	SpO2 levels versus untreated controls [2]	peripheral capillary oxygen saturation (SpO2) ([1]; approached normal levels at 21 days post bleomycin)
COc1ccc(C2=N[C@@H](c3ccc(Cl)cc3)[C@@H](c3ccc(Cl)cc3)N2C(=O)N2CCNC(=O)C2)c(OC(C)C)c1 [Nutlin-3a]	increased lung compliance	reduced lung elastance	statistically significant increases	
Nc1nc(O)c2ncn(COC(CO)CO)c2n1 [ganciclovir]	improved compliance values significantly	reduced lung elastance	statistically significant increases	higher SpO2 levels
